Reference: patent US10314883B2, “Compositions and methods for regulating blood pressure” (University of Virginia Patent Foundation, priority 2015, dated 2019)
Values belong to the molecule of their own block, whether it stands above or below them.

Assays:
[1] = target: T1, Panx1 (Mus musculus, UniProt Q9JIP4); assay: Whole-cell patch clamp of CBX-sensitive Panx1 current in HEK293 cells cotransfected with mPanx1 and α1DAR; format: cell-based; details: CBX 50 μmol/L after phenylephrine, +80 mV
T1 construct: we progressively substituted amino acids in this region of full-length Panx1 with alanine residues; HA; expressed in transfected cells; host or cells: HEK293T cells, transient co-transfection with alpha1DAR plasmid (Origene, NM_013460, C-terminal Myc-DDK)
T1 sequence (Q9JIP4 whole entry): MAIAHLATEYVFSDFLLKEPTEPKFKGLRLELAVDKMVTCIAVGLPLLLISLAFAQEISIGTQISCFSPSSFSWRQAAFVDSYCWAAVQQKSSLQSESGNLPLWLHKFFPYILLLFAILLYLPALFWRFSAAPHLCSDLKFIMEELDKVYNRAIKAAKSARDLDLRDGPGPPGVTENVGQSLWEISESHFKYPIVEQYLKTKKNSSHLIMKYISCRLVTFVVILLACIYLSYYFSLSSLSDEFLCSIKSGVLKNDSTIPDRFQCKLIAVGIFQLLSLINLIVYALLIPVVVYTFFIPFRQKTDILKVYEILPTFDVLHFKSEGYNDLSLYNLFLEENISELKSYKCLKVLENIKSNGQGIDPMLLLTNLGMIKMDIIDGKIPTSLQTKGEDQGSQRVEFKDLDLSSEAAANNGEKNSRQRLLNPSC
Method: Human Embryonic Kidney (HEK) 293T cells were cultured as previously described, and were used until passage 20. For ATP measurements, 50,000 cells/well were seeded in 24 well plates pre-coated with 0.01% poly-L-lysine, and transfected using Lipofectamine 2000 (Invitrogen) according to the manufacturer protocol. Briefly, 0.4 μg of α1DAR and 0.4 μg of Panx1^WT, Panx1^KYP>AAA, Panx1^IVEQ>AAA or Panx1^YLK>AAA plasmids were added to each well along with 2 μl of Lipofectamine 2000. For electrophysiology measurements, 4 μg of α1DAR plasmid, 2 μg of Panx1^WT, Panx1^KYP>AAA, Panx1^IVEQ>AAA or Panx1^YLK>AAA plasmids, and 0.5 μg of GFP plasmid were mixed with 10 μl Lipofectamine 2000 and added to a well of 6-well plate seeded with ˜70% confluent HEK cells. Cells were split the next morning and plated onto a glass coverslip for recording. ATP measurements and whole-cell recordings were performed 24 hours after transfection.
Whole-cell recordings were obtained at room temperature from transiently transfected HEK293T cells using Axopatch 200B amplifier (Molecular Devices) in a bath solution composed of 140 mmol/L NaCl, 3 mmol/L KCl, 2 mmol/L MgCl2, 2 mmol/L CaCl2, 10 mmol/L HEPES and 10 mmol/L glucose (pH 7.3). Patch pipettes (3-5 MΩ) were filled with a Cs-/TEA-based internal solution, as previously described. Ramp voltage commands with 7-s intervals were applied using pCLAMP software and Digidata1322A digitizer (Molecular Devices). Peak whole-cell currents were determined at +80 mV and normalized to cell capacitance. Current mediated by Panx1 was defined by its sensitivity to carbenoxolone (CBX). In this system, no CBX-sensitive current is observed in HEK293T cells without Panx1. Basal current was recorded for approximately two minutes and PE (20 μmol/L) was applied to the bath solution, which was followed by addition of CBX (50 μmol/L). When indicated, cells were pre-incubated with bath solution containing IL2 peptide or its scrambled version at room temperature for 40-60 minutes prior to the experiment. The effect of PE on Panx1 current was quantified relative to CBX-sensitive basal current, and data was expressed as percent increase in CBX-sensitive current. All experiments were performed on 8 to 22 cells for each conditions tested. Data were analyzed using a Kruskall Wallis test (non-parametric one-way ANOVA) followed by Dunn's post-hoc test.
To test if α1AR stimulation triggered opening of the Panx1 channel and the importance of the region represented by the IL2 peptide, we cotransfected mPanx1 and α1DAR into HEK293 cells and monitored whole-cell currents by patch clamp electrophysiology.

[2] = target: T2, Panx1 (Homo sapiens, UniProt Q96RD7); details: cited from earlier work
Target sequence in this assay (Q96RD7 whole entry): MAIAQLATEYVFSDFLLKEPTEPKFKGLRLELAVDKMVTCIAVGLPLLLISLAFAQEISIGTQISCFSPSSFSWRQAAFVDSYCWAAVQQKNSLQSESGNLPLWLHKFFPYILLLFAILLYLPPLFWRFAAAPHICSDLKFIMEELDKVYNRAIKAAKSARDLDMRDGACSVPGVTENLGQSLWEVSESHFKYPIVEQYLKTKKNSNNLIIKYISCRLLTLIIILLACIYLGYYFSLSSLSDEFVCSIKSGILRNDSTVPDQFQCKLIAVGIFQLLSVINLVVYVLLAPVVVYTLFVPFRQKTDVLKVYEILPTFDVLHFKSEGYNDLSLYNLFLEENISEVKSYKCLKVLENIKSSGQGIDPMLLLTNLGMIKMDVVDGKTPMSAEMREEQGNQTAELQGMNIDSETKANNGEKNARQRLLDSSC

[3] = tested on: anaesthetized guinea pigs; details: injected into anaesthetized guinea pigs; cited from earlier work
[4] = tested on: Cre/Panx1 mice; assay: Blood pressure by radiotelemetry before and after tamoxifen in the conditional KO mouse model; format: in vivo
Method: Blood pressure was measured using radiotelemetry units (Data Sciences International, DSI) implanted in C57Bl/6, Cre^−/Panx1^F1, Cre^−/Panx1^WT, Cre^+/Panx1^WT, and Cre^+/Panx1^F1 mice. The catheter of a radiotelemetry unit (TA11PA-C10, DSI) was implanted in the mouse left carotid artery under isoflurane anesthesia, and the catheter was tunneled trough the radiotransmitter placed in a subcutaneous pouch along the right flank of the mouse, as previously described. After implantation, mice were allowed to recover for seven days.
For experiments on the conditional KO mouse model: blood pressure was measured using Dataquest A.R.T. 20 software (DSI) for five days before proceeding to tamoxifen injections at 1 mg/kg for ten days. Blood pressure was recorded for another five days 24 hours after the last tamoxifen injection. The change in mean arterial pressure (ΔMAP) was calculated by subtracting the average MAP measured for five days before tamoxifen injections to the mean arterial pressure measured for five days after the tamoxifen injections. […]
Based on the central role of α1AR signaling in blood pressure homeostasis, we evaluated the effect of Panx1 deletion on systemic blood pressure. Blood pressure was measured using radiotelemetry units as previously described by us. Blood pressure was measured on the conditional KO mouse model for five days before proceeding to tamoxifen injections, and for another five days 24 hours after the last tamoxifen injection. The change in mean arterial pressure (ΔMAP) was calculated by subtracting the average MAP measured for five days before tamoxifen injections to the MAP measured for five days after the tamoxifen injections. Day MAP was measured during the light cycle (06:00-18:00), while night MAP was measured during the nocturnal cycle (18:00 to 06:00). For experiments on C57Bl/6, basal blood pressure was measured continuously for 30 minutes before intraperitoneal injection of saline solution or peptide, and for 1.5 hours after the injection. […]

[5] = target: T2, Panx1; details: neurons; cited from earlier work
Target sequence in this assay (Q96RD7 whole entry, species assumed): as the sequence (Q96RD7 whole entry) above

[6] = tested on: thoracodorsal arteries (TDA); assay: Pressure myography: agonist-induced constriction of pressurized TDAs from C57Bl/6 mice with pannexin inhibitors or Panx1 mimetic peptides; format: cell-based, mouse
Method: The contractile responses of pressurized thoracodorsal arteries (TDA) were measured as previously described. Briefly, TDA were isolated and placed in cold Krebs-HEPES until cannulation in a pressure arteriograph (Danish MyoTechnology). After a 30 minute equilibration period, cumulative concentrations of contractile agonists were applied to the TDA pressurized at 80 mmHg, and the vessel was visualized with an Olympus IX-71 microscope attached to a Hamamatsu EM-CCD camera coupled to Slidebook imaging software. […] Lastly, maximal diameter was measured at the end of each experiment in calcium-free Krebs-HEPES supplemented with EGTA (1 mmol/L) and sodium nitroprusside (10 μmol/L). In cases where the vessels were not constricting to the contractile agonist, their viability was assessed by applying 40 mM KCl and only TDA reaching 30% of the maximal diameter were considered for analysis. The contractile responses, as well as the basal tone, are expressed as a percentage of the maximal diameter.
Using pressure arteriography on TDA dissected from C57Bl/6 mice (as described; and aortic ring contraction, as described), we measured the effect of pannexin inhibitors, probenecid and 10Panx1, on the contractile response upon stimulation with different vasoconstrictors: phenylephrine (FIG. 1A), noradrenaline (also called norepinephrine) (FIG. 1B), serotonin (also known as 5-HT) (FIG. 1C) and endothelin-1 (FIG. 1D). […] In contrast, ^10Panx1 and probenecid had no effect on contraction of TDA measured in response to cumulative concentrations of serotonin or endothelin-1 (FIGS. 1C-D; Table 1).
To determine the region of Panx1 necessary for channel activation in response to α1AR stimulation, we produced short peptides derived from the intracellular regions of the Panx1 channel. We generated two peptides mimicking unique mouse Panx1 (mPanx1) sequences in the first intracellular loop (IL1 and IL2) and two peptides mimicking unique mPanx1 sequences in the C-terminal region, one in second intracellular loop (CT1) and one in the C-terminal tail (CT2) (FIG. 4A scissors indicate caspase 3 cleavage site; Table 3). All peptides also contained a TAT sequence to facilitate entry into cells and we verified the intracellular localization of each peptide by immunofluorescence detection of the TAT sequence in TDAs pre-incubated with each peptide (FIG. 7A). We tested the effect of each peptide on phenylephrine-induced contractile responses in pressurized TDAs from C57Bl/6 mice (FIGS. 4B-E). […] Note that these differences in effects of phenylephrine were similar in magnitude to those observed in arteries from SMC-specific Panx1-knockout mice and littermate controls (FIG. 2C, Table 2).

effect on Panx1 whole-cell current [1]: abolished the current
Molecule: CC1(C)[C@@H](OC(=O)CCC(=O)O)CC[C@]2(C)[C@H]3C(=O)C=C4[C@@H]5C[C@@](C)(C(=O)O)CC[C@]5(C)CC[C@@]4(C)[C@]3(C)CC[C@@H]12 [CBX, carbenoxolone]

Molecule: N[C@@H]1[C@H]2CN(c3nc4c(cc3F)c(=O)c(C(=O)O)cn4-c3ccc(F)cc3F)C[C@@H]12 [Trovafloxacin]
inhibition of Panx1 channels [2]: can also inhibit Panx1 channels

Molecule: OC(c1cc(C(F)(F)F)nc2c(C(F)(F)F)cccc12)C1CCCCN1 (stereo not drawn) [mefloquine]
effect on blood pressure [3]: induces hypotension

Molecule: CC/C(=C(\c1ccccc1)c1ccc(OCCN(C)C)cc1)c1ccccc1 [tamoxifen]
heart rate ([4]; Cre^+/Panx1^Fl mice, after tamoxifen): 549±7 beats per min | decrease of mean arterial blood pressure ([4]; Cre^+/Panx1^Fl mice, tamoxifen 1 mg/kg i.p. for ten days (induces SMC Panx1 deletion)): 4.6±2.1 mmHg | change of mean arterial blood pressure ([4]; mice retaining Panx1 (Cre^−/Panx1^WT, Cre^−/Panx1^Fl, Cre^+/Panx1^WT)): no evident changes

Molecule: mPanx1 305-RRLKVYEILPTFDVLH-318 (SEQ ID NO: 5) linked with TAT; previously published to inhibit NMDA-mediated Panx1 opening [CT1]
effect on NMDA-induced Panx1 activation [5]: prevent | effect on phenylephrine-induced constriction of pressurized TDAs ([6]; TAT-linked peptides, C57Bl/6 TDAs): did not affect | EMAX of phenylephrine for TDA constriction ([6]; in presence of the named peptide): 50.7 ± 9.08 percentage of maximal diameter
